Experimental data reported in US5098706A, “Juvenile hormone esterase for insect control” (The Regents of the University of California, priority 1988, dated 1992).

Experiments:
tomato hornworm larvae = experiment: Prevention of cuticular blackening in tomato hornworm larvae injected with juvenile hormone esterase; format: in vivo, Manduca sexta; conditions: third stadium larvae injected with 9 μg (148 pmoles) juvenile hormone esterase, then 0.17 nmoles epofenonane
Protocol: Tomato hornworm larvae, obtained from Zoecon Corp., were injected with the affinity purified juvenile hormone esterase obtained from Example I. Injections were performed at 10 hours after lights on the day before ecdysis to the third stadium. Larvae were reared on a 14L"10D photoperiod. Injections were made in 1.5 μl of buffer cocktail containing 3-10 μg (49-164 pmoles) of esterase. Total protein in each injection was kept constant at 10 μg with […] bovine serum albumen (BSA). Control injections in buffer contained 10 μg BSA or 12 μg larval blood protein from which the esterase was removed.
FIG. 2 illustrates third stadium tomato hornworm larvae after injection with 9 μg (148 pmoles) of juvenile hormone esterase as in FIG. 1, but then treated with 17 nmoles epofenonane (left), 0.17 nmoles epofenonane (middle) or no epofenonane (right). […] Epofenonane is a juvenile hormone chemical mimic, although it is not a substrate for juvenile hormone esterase. Thus, FIG. 2 illustrates that even a dose of juvenile hormone which is too low completely to prevent an anti-juvenile hormone effect can still effect a localized response.

[1] = target: T1, juvenile hormone esterase (Heliothis virescens, UniProt P12992); experiment: Juvenile hormone esterase kinetics for juvenile hormone; format: biochemical; conditions: substrate juvenile hormone
T1 sequence (P12992 20-564): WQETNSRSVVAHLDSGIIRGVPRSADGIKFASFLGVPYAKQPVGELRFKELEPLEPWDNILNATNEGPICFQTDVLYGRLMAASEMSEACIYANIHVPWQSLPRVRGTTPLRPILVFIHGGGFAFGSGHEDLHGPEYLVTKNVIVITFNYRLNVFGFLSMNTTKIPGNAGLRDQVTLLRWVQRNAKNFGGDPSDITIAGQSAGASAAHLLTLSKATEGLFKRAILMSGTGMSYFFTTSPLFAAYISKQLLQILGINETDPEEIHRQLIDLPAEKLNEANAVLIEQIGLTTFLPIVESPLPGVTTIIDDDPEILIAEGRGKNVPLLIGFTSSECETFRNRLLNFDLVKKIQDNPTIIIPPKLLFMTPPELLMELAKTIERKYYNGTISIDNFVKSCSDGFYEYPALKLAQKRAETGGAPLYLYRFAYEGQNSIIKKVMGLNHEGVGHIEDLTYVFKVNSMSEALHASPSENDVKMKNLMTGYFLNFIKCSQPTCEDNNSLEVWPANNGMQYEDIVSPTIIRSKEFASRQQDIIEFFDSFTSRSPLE
Text: (§1) Juvenile hormone esterase is biochemically interesting in that it is an extraordinarily efficient enzyme. The very low Km ^31 6×10^-8 M of juvenile hormone esterase, its high kcat, and the low molarity of the enzyme even in the last larval stadium indicate that production of even small amounts of juvenile hormone esterase (<0.1% of total protein) should overpower the ability of the corpora allata to make juvenile hormone. This destruction of the juvenile hormone will be […] by the juvenile hormone hemolymph carrier protein.

[2] = target: T2, juvenile hormone hemolymph carrier protein (H. virescens) (Heliothis virescens, UniProt Q25175); experiment: Binding of juvenile hormone by the hemolymph carrier protein; conditions: juvenile hormone bound by carrier protein
T2 construct: preparation not described in the excerpts
T2 sequence (Q25175 19-242): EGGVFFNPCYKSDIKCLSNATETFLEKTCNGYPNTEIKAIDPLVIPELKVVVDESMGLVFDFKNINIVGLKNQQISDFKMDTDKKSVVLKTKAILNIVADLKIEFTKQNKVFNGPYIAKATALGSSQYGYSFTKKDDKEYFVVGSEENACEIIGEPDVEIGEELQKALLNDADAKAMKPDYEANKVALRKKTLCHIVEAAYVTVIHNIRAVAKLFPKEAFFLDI
Text: as §1

Compound | prevention of blackening of the cuticle (tomato hornworm larvae) | Km [1] [µM] | Kd [2] [nM]
CCc1ccc(OCCC(CC)CCC2OC2(C)CC)cc1 (stereo not drawn) [epofenonane] | not sufficient to prevent completely the blackening of the cuticle |  | 
juvenile hormone |  | 0.06 | 610
